From the NIST ThermoML archive (doi:10.1021/acs.jced.9b00442)

Details: 100 kPa, Liquid; for electrical conductivity: Frequency=0.0006 MHz, Alternating current cell with electrodes; for viscosity: Concentric cylinders viscometry; for mass density: Vibrating tube method

CC[N+](CCO)(CCO)CCO.O=S(=O)([N-]S(=O)(=O)C(F)(F)F)C(F)(F)F
Details	electrical conductivity [S/m]	mass density [kg/m3]	viscosity [mPa·s]
283.15 K	0.007	–	–
288.15 K	0.011	1538.5	2041.7
289.15 K	–	1537.6	–
290.15 K	–	1536.7	–
291.15 K	–	1535.9	–
292.15 K	–	1535	–
293.15 K	0.018	1534.1	1275.4
294.15 K	–	1533.2	–
295.15 K	–	1532.4	–
296.15 K	–	1531.5	–
297.15 K	–	1530.6	–
298.15 K	0.026	1529.7	840.6
299.16 K	–	1528.9	–
300.16 K	–	1528	–
301.15 K	–	1527.1	–
302.15 K	–	1526.2	–
303.15 K	0.037	1525.4	569.4
304.15 K	–	1524.5	–
305.15 K	–	1523.6	–
306.15 K	–	1522.7	–
307.15 K	–	1521.9	–
308.15 K	0.052	1521	397.8
309.15 K	–	1520.1	–
310.15 K	–	1519.2	–
311.15 K	–	1518.4	–
312.15 K	–	1517.5	–
313.15 K	0.07	1516.6	280.3
314.15 K	–	1515.7	–
315.15 K	–	1514.9	–
316.15 K	–	1514	–
317.15 K	–	1513.1	–
318.15 K	0.092	1512.2	210.5
319.15 K	–	1511.3	–
320.15 K	–	1510.5	–
321.15 K	–	1509.6	–
322.15 K	–	1508.7	–
323.15 K	0.118	1507.8	158.6
324.15 K	–	1507	–
325.15 K	–	1506.1	–
326.15 K	–	1505.2	–
327.15 K	–	1504.4	–
328.15 K	–	1503.5	122
329.15 K	–	1502.6	–
330.15 K	–	1501.8	–
331.15 K	–	1500.9	–
332.15 K	–	1500	–
333.15 K	–	1499.2	94.7
334.15 K	–	1498.3	–
335.16 K	–	1497.4	–
336.15 K	–	1496.6	–
337.15 K	–	1495.7	–
338.15 K	–	1494.9	76.1
339.15 K	–	1494	–
340.15 K	–	1493.2	–
341.15 K	–	1492.3	–
342.15 K	–	1491.4	–
343.15 K	–	1490.6	61.6
344.15 K	–	1489.7	–
345.15 K	–	1488.9	–
346.15 K	–	1488	–
347.15 K	–	1487.2	–
348.15 K	–	1486.3	50.6
349.15 K	–	1485.5	–
350.15 K	–	1484.6	–
351.15 K	–	1483.8	–
352.15 K	–	1483	–
353.15 K	–	1482.1	41.9
354.15 K	–	1481.3	–
355.15 K	–	1480.4	–
356.15 K	–	1479.6	–
357.15 K	–	1478.7	–
358.15 K	–	1477.9	35.3
359.15 K	–	1477.1	–
360.15 K	–	1476.2	–
361.15 K	–	1475.4	–
362.16 K	–	1474.6	–
363.15 K	–	1473.7	30
